Assay results: US11401264B2, “Heterocyclic compound” (Orizuru Therapeutics, Inc., priority 2018, dated 2022)

Test system: cardiomyocytes from double knock-in human iPS cell lines (mCherry at TNNI3 locus)
Test: Experimental Example 1: mCherry (TNNI3 reporter) immunostaining measured by high contents screening
Type: cell-based
Set-up: key to average fluorescent intensity (at 30 μM): —: The symbol in Table 2 means that the average fluorescent intensity cannot be evaluated due to cell decrease
Settings: read on 8th day, Alexa 647 anti-mCherry, control well 797; for average fluorescent intensity (at 1 μM): test compound 1 μM added on 3rd and 6th culture days; for average fluorescent intensity (at 30 μM): test compound 30 μM added on 3rd and 6th culture days
Procedure: For detection of cardiomyocyte maturation, double knock-in human iPS cell lines, in which reporter protein sequences, EmGFP (Sequence Number 1) and mCherry (Sequence Number 2) were inserted into gene loci for TNNI1 and TNNI3, respectively, were prepared (the human iPS cells were prepared from episomal vector (loaded gene; OCT3/4, KLF4, SOX2, L-MYC, LIN28, mouse p53DD) using PBMC (LP_167, Sample ID: 20130318) purchased from CTL (reference literature; Okita K, et al. Stem Cells. 2012 Nov. 29. doi: 10.1002/stem.1293)).
The maintenance culture of the above-mentioned reporter iPS cell lines was carried out by a conventional method (Okita K, et al. Stem Cells. 2012 Nov. 29. doi: 10.1002/stem.1293).
For differentiation induction into cardiomyocytes, the reporter iPS cell lines were treated with 0.5×TrypLE select (Life Technologies, diluted in 1/2 with 0.5 mM EDTA/PBS) for 4 to 5 minutes, and the cells were exfoliated using a cell scraper (IWAKI), and then dissociated into the single cell by pipetting. The medium was removed by centrifugation (1,000 rpm, 5 min), and the obtained cells were seeded on a bioreactor (ABLE) by 1×10^7 cells per 30 mL of the bioreactor, and then cultured in a medium prepared by adding 1% L-glutamine, transferrin 150 μg/mL, ascorbic acid 50 μg/mL (Sigma), monothioglycerol 4×10^−4 M, 10 μM Rock inhibitor (Y-27632), 2 ng/mL BMP4 (R&D) and 0.5% Matrigel (Growth Factor Reduced) to a medium after removal of solution C from StemFit AK02 (AJINOMOTO AK02, 400 mL of solution A and 100 mL of B solution, total 500 mL), at 37° C., under 5% oxygen condition (55 rpm, stirred suspension culture method) to form embryoid bodies (0 day).
Next day (1st day), 9 μL (final concentration 3 ng/mL) of 10 μg/mL activin A, 15 μL (final concentration 5 ng/mL) of 10 μg/mL bFGF and […] (final concentration 10 ng/mL) of 10 μg/mL BMP4 were added to the bioreactor, and the cells were cultured at 37° C. for additional 2 days, under 5% oxygen condition.
Then (3rd day), the obtained embryoid bodies were collected in a 50 mL centrifuge tube, and then subjected to centrifugation (200 g, 1 min). The medium was removed, and the embryoid bodies were cultured in a medium prepared by adding 1% L-glutamine, transferrin 150 μg/mL, ascorbic acid 50 μg/mL (Sigma), monothioglycerol 4×10^−4 M, 10 ng/mL VEGF, 1 μM IWP-3, 0.6 μM dorsomorphin and 5.4 μM SB431542 to a medium after removal of solution C from StemFit AK02 (AJINOMOTO AK02, 400 mL of solution A and 100 mL of B solution, total 500 mL), at 37° C. for 3 days, under 5% oxygen condition (55 rpm, stirred suspension culture method).
Then (6th day), the bioreactor was left to stand to precipitate the embryoid bodies, and 80 to 90% of the medium was removed. A medium prepared by adding 1% L-glutamine, transferrin 150 μg/mL, ascorbic acid 50 μg/mL (Sigma), monothioglycerol […] and 5 ng/mL VEGF to a medium after removal of solution C from StemFit AK02 (AJINOMOTO AK02, 400 mL of solution A and 100 mL of B solution, total 500 mL) was added to the bioreactor so that the total volume became 30 mL, and the embryoid bodies were cultured for 8 days, at 37° C., under 5% oxygen condition (55 rpm, stirred suspension culture method). During the culture, the medium was replaced with a medium under the same conditions every 2 to 3 days.
14th Day after the start of the differentiation induction, the embryoid bodies were treated with 2 mg/mL collagenase type I (Sigma) for 2 hr, and then with 0.25% trypsin/EDTA (Invitrogen) for 10 min. 50% FBS/IMDM (Thermo Fisher Science) was added thereto, and the embryoid bodies were dissociated into the single cell by pipetting, and then subjected to centrifugation (1,000 rpm, 5 minutes). […]

Row | SMILES | average fluorescent intensity (at 1 μM) | average fluorescent intensity (at 30 μM)
1 | CCOc1ccc(-c2nc3cc(N4Cc5cc(N6CCOCC6)ccc5C4=O)ccc3[nH]2)cc1 [Example 72, 2-(2-(4-ethoxyphenyl)-1H-benzimidazol-5-yl)-5-(morpholin-4-yl)isoindolin-1-one] | 1370 | 948
2 | CC(C)CNC(=O)COc1ccc(-c2nc3cc(N4Cc5cc(N6CCCCC6)ccc5C4=O)ccc3[nH]2)cc1 [Example 26, N-isobutyl-2-(4-(5-(1-oxo-5-(piperidin-1-yl)-1,3-dihydro-2H-isoindol-2-yl)-1H-benzimidazol-2-yl)phenoxy)acetamide] | 1809 | —
3 | O=C(COc1ccc(-c2nc3cc(N4Cc5cc(N6CCOCC6)ccc5C4=O)ccc3[nH]2)cc1)Nc1ccncc1 [Example 35, 2-(4-(5-(5-(morpholin-4-yl)-1-oxo-1,3-dihydro-2H-isoindol-2-yl)-1H-benzimidazol-2-yl)phenoxy)-N-(pyridin-4-yl)acetamide] | 1536 | 1204
4 | CCCOc1ccc(-c2nc3cc(N4Cc5cc(N6CCOCC6)ccc5C4=O)ccc3[nH]2)cc1 [Example 58, 5-(morpholin-4-yl)-2-(2-(4-propoxyphenyl)-1H-benzimidazol-5-yl)isoindolin-1-one] | 994 | 819
5 | CCOc1ccc(-c2nc3cc(N4Cc5cc(N6CCOCC6)ccc5C4=O)ccc3n2C)cc1 [Example 59, 2-(2-(4-ethoxyphenyl)-1-methyl-1H-benzimidazol-5-yl)-5-(morpholin-4-yl)isoindolin-1-one] | 803 | 1301
6 | COc1ccc(-c2nc3cc(N4Cc5cc(N6CCCCC6)ccc5C4=O)ccc3[nH]2)cc1 [Example 68, 2-(2-(4-methoxyphenyl)-1H-benzimidazol-5-yl)-5-(piperidin-1-yl)isoindolin-1-one] | 1301 | 
7 | CCOc1ccc(-c2nc3cc(N4Cc5cc(N(CC)CC)ccc5C4=O)ccc3[nH]2)cc1 [Example 64, 5-(diethylamino)-2-(2-(4-ethoxyphenyl)-1H-benzimidazol-5-yl)isoindolin-1-one] | 1328 | —
8 | CCCCCCOc1ccc(-c2nc3cc(N4Cc5cc(N6CCOCC6)ccc5C4=O)ccc3[nH]2)cc1 [Example 54, 2-(2-(4-(hexyloxy)phenyl)-1H-benzimidazol-5-yl)-5-(morpholin-4-yl)isoindolin-1-one] | 838 | —
9 | O=C(COc1ccc(-c2nc3cc(N4Cc5cc(N6CCOCC6)ccc5C4=O)ccc3[nH]2)cc1)OCc1ccccc1 [Example 52, benzyl (4-(5-(5-(morpholin-4-yl)-1-oxo-1,3-dihydro-2H-isoindol-2-yl)-1H-benzimidazol-2-yl)phenoxy)acetate] | 937 | 973
10 | CC(C)(C)OC(=O)N1CCC(c2nc3cc(N4Cc5cc(N6CCCCC6)ccc5C4=O)ccc3[nH]2)CC1 [Example 42, tert-butyl 4-(5-(1-oxo-5-(piperidin-1-yl)-1,3-dihydro-2H-isoindol-2-yl)-1H-benzimidazol-2-yl)piperidine-1-carboxylate] | 980 | 1041
11 | O=C1c2ccc(N3CCCCC3)cc2CN1c1ccc2[nH]c(C3CCNCC3)nc2c1 [Example 39, 5-(piperidin-1-yl)-2-(2-(piperidin-4-yl)-1H-benzimidazol-5-yl)isoindolin-1-one] | 1042 | 1026
12 | O=C1c2ccc(N3CCOCC3)cc2CN1c1ccc2[nH]c(-c3ccc(OCc4ccccc4)cc3)nc2c1 [Example 55, 2-(2-(4-(benzyloxy)phenyl)-1H-benzimidazol-5-yl)-5-(morpholin-4-yl)isoindolin-1-one] | 1092 | —
13 | O=C1c2ccc(N3CCCCC3)cc2CN1c1ccc2[nH]c(Cc3ccccc3)nc2c1 [Example 2, 2-(2-benzyl-1H-benzimidazol-5-yl)-5-(piperidin-1-yl)isoindolin-1-one] | 943 | 1073
14 | O=C(COc1ccc(-c2nc3cc(N4Cc5cc(N6CCCCC6)ccc5C4=O)ccc3[nH]2)cc1)NCCCc1ccncc1 [Example 12, 2-(4-(5-(1-oxo-5-(piperidin-1-yl)-1,3-dihydro-2H-isoindol-2-yl)-1H-benzimidazol-2-yl)phenoxy)-N-(3-(pyridin-4-yl)propyl)acetamide] | 1675 | 1226
15 | O=C(O)COc1ccc(-c2nc3cc(N4Cc5cc(N6CCCCC6)ccc5C4=O)ccc3[nH]2)cc1 [Example 6, (4-(5-(l-oxo-5-(piperidin-1-yl)-1,3-dihydro-2H-isoindol-2-yl)-1H-benzimidazol-2-yl)phenoxy)acetic acid] | 974 | 987
16 | O=C(COc1ccc(-c2nc3cc(N4Cc5cc(N6CCCCC6)ccc5C4=O)ccc3[nH]2)cc1)NCCCc1ccccc1 [Example 24, 2-(4-(5-(1-oxo-5-(piperidin-1-yl)-1,3-dihydro-2H-isoindol-2-yl)-1H-benzimidazol-2-yl)phenoxy)-N-(3-phenylpropyl)acetamide] | 1241 | —
17 | CCOc1ccc(-c2nc3ccc(N4Cc5cc(N6CCOCC6)ccc5C4=O)cc3n2C)cc1 [Example 60, 2-(2-(4-ethoxyphenyl)-1-methyl-1H-benzimidazol-6-yl)-5-(morpholin-4-yl)isoindolin-1-one] | 770 | 868
18 | CCN(CC)c1ccc2c(c1)CN(c1ccc3[nH]c(-c4ccc(OC)cc4)nc3c1)C2=O [Example 71, 5-(diethylamino)-2-(2-(4-methoxyphenyl)-1H-benzimidazol-5-yl)isoindolin-1-one] | 923 | —
19 | CCOc1ccc(-c2nc3cc(N4Cc5cc(N6CCN(C)CC6)ccc5C4=O)ccc3[nH]2)cc1 [Example 62, 2-(2-(4-ethoxyphenyl)-1H-benzimidazol-5-yl)-5-(4-methylpiperazin-1-yl)isoindolin-1-one] | 1004 | —
20 | O=C(COc1ccc(-c2nc3cc(N4Cc5cc(N6CCCCC6)ccc5C4=O)ccc3[nH]2)cc1)NCCNc1cccc(F)c1 [Example 10, N-(2-((3-fluorophenyl)amino)ethyl)-2-(4-(5-(1-oxo-5-(piperidin-1-yl)-1,3-dihydro-2H-isoindol-2-yl)-1H-benzimidazol-2-yl)phenoxy)acetamide] | 1032 | —
21 | O=C(COc1ccc(-c2nc3cc(N4Cc5cc(N6CCOCC6)ccc5C4=O)ccc3[nH]2)cc1)NCC1CCOCC1 [Example 30, 2-(4-(5-(5-(morpholin-4-yl)-1-oxo-1,3-dihydro-2H-isoindol-2-yl)-1H-benzimidazol-2-yl)phenoxy)-N-(tetrahydro-2H-pyran-4-ylmethyl)acetamide] | 1005 | 876
